Where “and” joins values, the source holds several entries; their conditions need not be identical. Equal values may be shown once.

For one test, the system named is A53T a-syn or EV rats. Nature of the test: Cylinder test, forelimb asymmetry. The class given is in vivo, rat. Set-up: Forelimb asymmetry in cylinder test: scale not given here. The note with it: for Forelimb asymmetry in cylinder test: individual rats. As to the method:
Animals were secured in a stereotactic frame under isoflurane/oxygen anesthesia and ketoprofen (5 mg/kg) analgesia. The surgical site was shaved and sterilized with iodine/betadine prior to making a 2 cm incision along the midline. The scalp was exposed and a unilateral injection targeting the SN was performed at coordinates AP −5.2 mm, ML −2 mm and DV −7.5 mm with respect to the bregma as a point of reference. For each animal, a total volume of 2 μl of virus was injected at a rate of 0.5 μl/min using a microinjection pump and 10 μl Hamilton syringe with a 26-gauge needle. For A53T groups, 1 μl (low dose) or 1.34 μl (high dose) of AAV1/2-A53T a-syn (5.1 × 10^12 genomic particles/ml), 0.14 μl of AAV1/2-PDpep1.3-GFP or Scramble1.3-GFP (5.1 × 10^12 genomic particles/ml) and 0.86 μl or 0.52 μl of sterile PBS was injected; for EV groups, 1 μl (low dose) or 1.34 μl (high dose) of AAV1/2-EV (5.1 × 10^12 genomic particles/ml) replaced AAV1/2-A53T. For V1S/SV2 groups, 0.58 μl of AAV1/2-V1S (1.1 × 10^12 genomic particles/ml), 0.58 μl of AAV1/2-SV2 (1.1 × 10^12 genomic particles/ml), 0.14 μl of AAV1/2-PDpep1.3-RFP or Scramble1.3-RFP (5.1 × 10^12 genomic particles/ml) and 0.7 μl of sterile PBS was injected; for the YFP groups, 1.16 μl of AAV1/2-YFP (1.1 × 10^12 genomic particles/ml), 0.14 μl of AAV1/2-PDpep1.3-RFP or Scramble1.3-RFP (5.1 × 10^12 genomic particles/ml) and 0.7 μl of sterile PBS was injected. At the end of virus injection, the needle remained in place for 5 min before gradual removal.
Spontaneous forepaw use was evaluated using the cylinder test 1 day prior to stereotactic AAV injection, at 21 days post-injection, and at 41 days post-injection. Following overnight food restriction, individual rats with right paws marked black were placed into a glass cylinder in front of two mirrors and videos recorded. An observer blinded to treatment conditions later scored the videos by recording whether animals used their left forepaw, right forepaw, or both forepaws to touch the inner glass surface upon rearing. A total of 5 min of video recording was scored and a minimum of 10 total touches was required for data inclusion.

The subject of test [1] is endogenous a-syn in SNCA triplication fibroblasts. The test can be described thus: a-syn immunofluorescence in SNCA triplication fibroblasts. The class given is cell-based, human. An excerpt:
Fig. 6 PDpep1.3 reduces endogenous a-syn levels and rescues lysosomal activity in human PD cell models. A Representative images of fibroblasts from a PD patient with SNCA triplication transduced with Scramble1.3-RFP or PDpep1.3-RFP (scale bars = 10 µm). B Quantification of relative a-syn fluorescence in RFP-positive fibroblasts. Bars represent means ± s.e.m. (one-way ANOVA, F(3, 36) = 6.159; P = 0.0017 followed by Dunnett’s post-test; n = 3). C Endolysosomal flux assay using confocal microscopy in SNCA triplication fibroblasts transduced with AAV-Scramble1.3-RFP or AAV-PDpep1.3-RFP. Cells were treated as indicated with Bafilomycin A1 (Baf). Bars represent means ± s.e.m. (nested one-way ANOVA, F(3, 10) = = 23.70; P < 0.0001 followed by Dunnett’s post-test; n = 3). D Representative images of human iPSC-derived dopaminergic neurons with A53T a-syn mutation or isogenic controls without a-syn mutation. These iPSC-derived dopaminergic neurons were transduced with Scramble1.3-RFP or PDpep1.3-RFP and immunostained with anti-a-syn, anti-TH, or anti-LAMP1 antibodies (scale bars = 5 μm). E Quantification of relative a-syn fluorescence intensity in RFP-positive A53T mutant and control iPSC-derived dopaminergic neurons. Bars represent means ± s.e.m. […] F Quantification of relative LAMP1 fluorescence intensity in RFP-positive A53T mutant and control iPSC-derived dopaminergic neurons. […]

As for DEEIERQLKALG [PDpep1.3], the “Forelimb asymmetry in cylinder test” value in the test with A53T a-syn or EV rats (A53T, 3 WPI) was -28.57 and 24.32 and 52.38 and 33.3333 and 9.524 and -2.857; in the test with A53T a-syn or EV rats (A53T, 6 WPI), -12.5 (2×) and 25.93 and 21.43 and 6.98; in the test with A53T a-syn or EV rats (A53T, baseline (prior to injection)), -7.41 and 24.14 and 18.18 and 22.22 and -2.4 and -27.78 and 19.4; with A53T a-syn or EV rats (EV, 3 WPI) it was 3.448 and -28.5714 and 80.9524 and -6.849 and 10.3448 and -26.6667 and 19.4444; in the test with A53T a-syn or EV rats (EV, 6 WPI), 20 and -14.29 and 37.5 and -3.23 and 75 and -33.33 and 3.03; in the test on A53T a-syn or EV rats (EV, baseline (prior to injection)) it was 21.95 and -4 and 13.16 and -24.75 and 1.82 and 24.14 and 9.8. Further, the “Forelimb asymmetry” value in the test on A53T a-syn or EV rats (A53T, 6 weeks) was “comparable to controls”. Also, the “Effect on a-syn fluorescence in fibroblasts” value in test [1] is listed as “reduced a-syn fluorescence”. The “Effect on a-syn levels in presence of Bafilomycin A1” value in test [1] (+ Bafilomycin A1) was “could not reduce a-syn levels”.

(Values after publication PMC10115881, “Disrupting the α-synuclein-ESCRT interaction with a peptide inhibitor mitigates neurodegeneration in preclinical models of Parkinson’s disease” (Nature Communications, 2023).)
